According to patent US11472808B2, “Substituted pyrrolo[1,2-c]pyrimidines as hepatitis B antiviral agents” (Enanta Pharmaceuticals, Inc., priority 2019, dated 2022):
pEC50: −log10 of the molar value.

Assays:
[1] = Compound toxicity, ATPLite total ATP levels; assay type: cell-based; conditions: human, HepG2 cells; concentration reducing total ATP levels by 50% relative to no drug controls; ATPLite three days after compound addition
Description: Compound toxicity is evaluated by seeding cells at 15,000 cells/well and treating with compound as described above.

HBV = assay: HepAD38 anti-HBV assay: reduction of viral product accumulation (virion DNA qPCR, HBsAg/HBeAg ELISA); assay type: cell-based; conditions: Hepatitis B virus, 120 h; HepAD38 cells; concentration reducing viral product accumulation by 50% relative to no drug controls; harvest five days after compound addition; read-out: HepAD38 EC50
In short: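 Tetracycline-free HepAD38 cells treated 5 days with compound (1:200 DMSO dilution), or 8 days with media and compound refreshed on d2 and d5. Virion DNA quantified by qPCR; HBsAg or HBeAg by ELISA. EC50 is the concentration reducing viral product accumulation 50% versus no-drug controls.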

Row | SMILES | CC50 at 3 days [1] | pEC50 (HBV)
1 | O=S(=O)(N[C@H]1CC2=C(c3ccn(C(F)F)n3)[C@H](c3ccc(F)cc3Cl)N=C(c3nccs3)N2C1)[C@H]1C[C@](O)(c2ccccn2)C1 [Example 371] | 10 to 25 µM | > 7.00
2 | O=C1CCC(S(=O)(=O)N[C@H]2CC3=C(c4ccn(C(F)F)n4)[C@H](c4ccc(F)cc4Cl)N=C(c4nccs4)N3C2)CC1 [Example 97] | > 25 µM | > 7.00
3 | O=S(=O)(N[C@H]1CC2=C(c3ccn(C(F)F)n3)[C@H](c3ccc(F)cc3Cl)N=C(c3nccs3)N2C1)N1CCC(O)(c2ccccc2)CC1 [Example 257] | 10 to 25 µM | > 7.00
4 | O=S(=O)(N[C@H]1CC2=C(c3ccn(C(F)F)n3)[C@H](c3ccc(F)cc3Cl)N=C(c3nccs3)N2C1)N1C[C@@H](F)[C@@H](F)C1 [Example 274] | < 10 µM | > 7.00
5 | CS(=O)(=O)Nc1ccc(S(=O)(=O)N[C@H]2CC3=C(c4ccn(C(F)F)n4)[C@H](c4ccc(F)cc4Cl)N=C(c4nccs4)N3C2)cc1 [Example 357] | > 25 µM | > 7.00
6 | O=S(=O)(N[C@H]1CC2=C(c3ccn(C(F)F)n3)[C@H](c3ccc(F)cc3Cl)N=C(c3nccs3)N2C1)c1ccc(F)cc1F [Example 388] | > 25 µM | > 7.00
7 | O=S(=O)(N[C@H]1CC2=C(c3ccn(C(F)F)n3)[C@H](c3ccc(F)cc3Cl)N=C(c3nccs3)N2C1)N1CCCCC12CCC2 [Example 285] | > 25 µM | > 7.00
8 | O=S(=O)(N[C@H]1CC2=C(c3ccn(C(F)F)n3)[C@H](c3ccc(F)cc3Cl)N=C(c3nccs3)N2C1)c1ccccn1 [Example 364] | > 25 µM | > 7.00
9 | O=S(=O)(N[C@H]1CC2=C(c3ccn(C(F)F)n3)[C@H](c3ccc(F)cc3Cl)N=C(c3nccs3)N2C1)N1C[C@H](F)[C@@H](F)C1 [Example 275] | 10 to 25 µM | > 7.00
10 | CS(=O)(=O)NC1CCN(S(=O)(=O)N[C@H]2CC3=C(c4ccn(C(F)F)n4)[C@H](c4ccc(F)cc4Cl)N=C(c4nccs4)N3C2)C1 (stereo partly shown) [Example 290] | > 25 µM | > 7.00
11 | CS(=O)(=O)C1CN(S(=O)(=O)N[C@H]2CC3=C(c4ccn(C(F)F)n4)[C@H](c4ccc(F)cc4Cl)N=C(c4nccs4)N3C2)C1 [Example 337] | > 25 µM | > 7.00
12 | O=S1(=O)NCCN1[C@H]1CC2=C(c3ccn(C(F)F)n3)[C@H](c3ccc(F)cc3Cl)N=C(c3nccs3)N2C1 [Example 376] | > 25 µM | > 7.00
13 | O=S(=O)(N[C@H]1CC2=C(c3ccn(C(F)F)n3)[C@H](c3ccc(F)cc3Cl)N=C(c3nccs3)N2C1)c1cn[nH]c1 [Example 20] | > 25 µM | > 7.00
14 | O=S(=O)(N[C@H]1CC2=C(c3ccn(C(F)F)n3)[C@H](c3ccc(F)cc3Cl)N=C(c3nccs3)N2C1)N1CC(O)C1 [Example 95] | > 25 µM | > 7.00
15 | O=S(=O)(N[C@H]1CC2=C(c3ccn(C(F)F)n3)[C@H](c3ccc(F)cc3Cl)N=C(c3nccs3)N2C1)N1CCC(O)(C2CC2)CC1 [Example 270] | < 10 µM | > 7.00
16 | O=S(=O)(N[C@H]1CC2=C(c3ccn(C(F)F)n3)[C@H](c3ccc(F)cc3Cl)N=C(c3nccs3)N2C1)N[C@H](c1ccccn1)C1CC1 [Example 353] | > 25 µM | > 7.00
17 | O=C(N[C@H]1CC2=C(c3ccn(C(F)F)n3)[C@H](c3ccc(F)cc3Cl)N=C(c3nccs3)N2C1)c1ccccn1 [Example 214] | 10 to 25 µM | > 7.00
18 | O=S(=O)(N[C@H]1CC2=C(c3ccn(C(F)F)n3)[C@H](c3ccc(F)cc3Cl)N=C(c3nccs3)N2C1)N[C@H]1C[C@@H](O)C1 [Example 156] | > 25 µM | > 7.00
19 | N#CCCCS(=O)(=O)N[C@H]1CC2=C(c3ccn(C(F)F)n3)[C@H](c3ccc(F)cc3Cl)N=C(c3nccs3)N2C1 [Example 135] | > 25 µM | > 7.00
20 | C[C@]1(O)CC[C@H](c2ccc(S(=O)(=O)N[C@H]3CC4=C(c5ccn(C(F)F)n5)[C@H](c5ccc(F)cc5Cl)N=C(c5nccs5)N4C3)cc2)CC1 [Example 411] | 10 to 25 µM | > 7.00
21 | C[C@]1(NS(=O)(=O)C2CCC(O)(c3ccccn3)CC2)CC2=C(c3ccn(C(F)F)n3)[C@H](c3ccc(F)cc3Cl)N=C(c3nccs3)N2C1 (stereo partly shown) [Example 363] | 10 to 25 µM | > 7.00
22 | CS(=O)(=O)c1cccc(S(=O)(=O)N[C@H]2CC3=C(c4ccn(C(F)F)n4)[C@H](c4ccc(F)cc4Cl)N=C(c4nccs4)N3C2)c1 [Example 336] | > 25 µM | > 7.00
23 | Cc1ccc(S(=O)(=O)N[C@H]2CC3=C(c4ccn(C(F)F)n4)[C@H](c4ccc(F)cc4Cl)N=C(c4nccs4)N3C2)cn1 [Example 401] | > 25 µM | > 7.00
24 | O=S(=O)(N[C@H]1CC2=C(c3ccn(C(F)F)n3)[C@H](c3ccc(F)cc3Cl)N=C(c3nccs3)N2C1)N1CCC[C@H](O)C1 [Example 93] | > 25 µM | > 7.00

Row | SMILES | CC50 at 3 days [1] | pEC50 (HBV)
25 | Cn1ccc(S(=O)(=O)N[C@H]2CC3=C(c4ccn(C(F)F)n4)[C@H](c4ccc(F)cc4Cl)N=C(c4nccs4)N3C2)n1 [Example 394] | > 25 µM | > 7.00
26 | O=S(=O)(N[C@H]1CC2=C(c3ccn(C(F)F)n3)[C@H](c3ccc(F)cc3Cl)N=C(c3nccs3)N2C1)N1CCC(O)(c2ccncc2)CC1 [Example 259] | > 25 µM | > 7.00
27 | N#CCC1(O)CC2=C(c3ccn(C(F)F)n3)[C@H](c3ccc(F)cc3Cl)N=C(c3nccs3)N2C1 (stereo partly shown) [Example 140] | > 25 µM | > 7.00
28 | O=S(=O)(N[C@H]1CC2=C(c3ccn(C(F)F)n3)[C@H](c3ccc(F)cc3Cl)N=C(c3nccs3)N2C1)c1ccc(C(O)c2ccccn2)cc1 (stereo partly shown) [Example 334] | < 10 µM | > 7.00
29 | O=S(=O)(N[C@H]1CC2=C(c3ccn(C(F)F)n3)[C@H](c3ccc(F)cc3Cl)N=C(c3nccs3)N2C1)N1CCC(O)(CO)CC1 [Example 89] | > 25 µM | > 7.00
30 | O=C(O)[C@H]1CC[C@H](c2ccc(S(=O)(=O)N[C@H]3CC4=C(c5ccn(C(F)F)n5)[C@H](c5ccc(F)cc5Cl)N=C(c5nccs5)N4C3)cc2)CC1 [Example 426] | > 25 µM | > 7.00
31 | Nc1cccc(S(=O)(=O)N[C@H]2CC3=C(c4ccn(C(F)F)n4)[C@H](c4ccc(F)cc4Cl)N=C(c4nccs4)N3C2)n1 [Example 383] | > 25 µM | > 7.00
32 | CN(CCO)S(=O)(=O)N[C@H]1CC2=C(c3ccn(C(F)F)n3)[C@H](c3ccc(F)cc3Cl)N=C(c3nccs3)N2C1 [Example 81] | > 25 µM | > 7.00
33 | O=S(=O)(N[C@H]1CC2=C(c3ccn(C(F)F)n3)[C@H](c3ccc(F)cc3Cl)N=C(c3nccs3)N2C1)N1CCOCC1 [Example 74] | > 25 µM | > 7.00
34 | O=C(N[C@H]1CC2=C(c3ccn(C(F)F)n3)[C@H](c3ccc(F)cc3Cl)N=C(c3nccs3)N2C1)c1ccccc1 [Example 213] | 10 to 25 µM | > 7.00
35 | O=S(=O)(N[C@H]1CC2=C(c3ccn(C(F)F)n3)[C@H](c3ccc(F)cc3Cl)N=C(c3nccs3)N2C1)N[C@H]1C[C@H](O)C1 [Example 157] | > 25 µM | > 7.00
36 | O=S(=O)(N[C@H]1CC2=C(c3ccn(C(F)F)n3)[C@H](c3ccc(F)cc3Cl)N=C(c3nccs3)N2C1)N1CCCC1 [Example 271] | 10 to 25 µM | > 7.00
37 | CC1(O)CCN(S(=O)(=O)N[C@H]2CC3=C(c4ccn(C(F)F)n4)[C@H](c4ccc(F)cc4Cl)N=C(c4nccs4)N3C2)CC1 [Example 256] | > 25 µM | > 7.00
38 | C[C@]1(O)CC[C@@H](c2ccc(S(=O)(=O)N[C@H]3CC4=C(c5ccn(C(F)F)n5)[C@H](c5ccc(F)cc5Cl)N=C(c5nccs5)N4C3)cc2)CC1 [Example 410] | > 25 µM | > 7.00
39 | O=S(=O)(N[C@H]1CC2=C(c3ccn(C(F)F)n3)[C@H](c3ccc(F)cc3Cl)N=C(c3nccs3)N2C1)c1cccc(C(O)c2ccccn2)c1 (stereo partly shown) [Example 339] | > 25 µM | > 7.00
40 | O=C1NC[C@H](CNC(=O)c2cccc(S(=O)(=O)N[C@H]3CC4=C(c5ccn(C(F)F)n5)[C@H](c5ccc(F)cc5Cl)N=C(c5nccs5)N4C3)c2)O1 [Example 421] | > 25 µM | > 7.00
41 | O=S(=O)(N[C@H]1CC2=C(c3ccn(C(F)F)n3)[C@H](c3ccc(F)cc3Cl)N=C(c3nccs3)N2C1)N1CCCCC1 [Example 73] | 10 to 25 µM | > 7.00
42 | O=S(=O)(N[C@H]1CC2=C(c3ccn(C(F)F)n3)[C@H](c3ccc(F)cc3Cl)N=C(c3nccs3)N2C1)N1CCC(O)(c2ncco2)CC1 [Example 261] | > 25 µM | > 7.00
43 | CC(C)C[C@H](NS(=O)(=O)N[C@H]1CC2=C(c3ccn(C(F)F)n3)[C@H](c3ccc(F)cc3Cl)N=C(c3nccs3)N2C1)c1ccccn1 [Example 359] | > 25 µM | > 7.00
44 | CC1(O)CCN(S(=O)(=O)N[C@H]2CC3=C(c4ccn(C(F)F)n4)[C@H](c4ccc(F)cc4Cl)N=C(c4nccs4)N3C2)C1 (stereo partly shown) [Example 282] | > 25 µM | > 7.00
45 | O=S(=O)(NCCc1ccccn1)N[C@H]1CC2=C(c3ccn(C(F)F)n3)[C@H](c3ccc(F)cc3Cl)N=C(c3nccs3)N2C1 [Example 309] | > 25 µM | > 7.00
46 | O=C1NC2(CO1)CN(S(=O)(=O)N[C@H]1CC3=C(c4ccn(C(F)F)n4)[C@H](c4ccc(F)cc4Cl)N=C(c4nccs4)N3C1)C2 [Example 358] | > 25 µM | > 7.00
47 | O=S(=O)(N[C@H]1CC2=C(c3ccn(C(F)F)n3)[C@H](c3ccc(F)cc3Cl)N=C(c3nccs3)N2C1)c1ccccc1F [Example 387] | > 25 µM | > 7.00
